From patent US20220289679A1, “HETEROCYCLIC COMPOUND” (Takeda Pharmaceutical Company Limited, priority 2019, published 2022)

The compounds below were run against T1, human GCS (glucosylceramide synthase) (Homo sapiens, UniProt Q16739) (assay: Glucosylceramide Synthase (GCS) Assay). Settings: test compound 10 μM; microsome fraction of Expi293F cells expressing human GCS; 1.7 μM UDP-glucose, 3 μM C8 ceramide; room temperature 60 min; C8 glucosylceramide by Rapidfire MS/MS; read-out: GCS enzyme inhibitory rate at 10 μM (%).
T1 construct: made in house; host or cells: Expi293F cells (transient expression; microsome fraction)
T1 sequence (Q16739 1-394): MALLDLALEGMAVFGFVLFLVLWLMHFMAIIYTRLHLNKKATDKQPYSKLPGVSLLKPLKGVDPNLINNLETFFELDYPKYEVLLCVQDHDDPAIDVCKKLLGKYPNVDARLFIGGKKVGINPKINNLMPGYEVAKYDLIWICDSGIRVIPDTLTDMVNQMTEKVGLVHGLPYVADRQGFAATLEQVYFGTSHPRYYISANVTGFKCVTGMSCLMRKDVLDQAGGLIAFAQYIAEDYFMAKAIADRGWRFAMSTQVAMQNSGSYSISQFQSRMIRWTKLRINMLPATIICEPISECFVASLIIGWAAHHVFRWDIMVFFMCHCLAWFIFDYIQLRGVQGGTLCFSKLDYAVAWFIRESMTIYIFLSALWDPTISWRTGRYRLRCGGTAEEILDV
Type: biochemical
How it was run: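 Test compounds were run at a final 10 μM against liposomal C8 ceramide (3 μM) and UDP-glucose at its Km (1.7 μM). Human GCS came as microsomes from transfected Expi293F cells, incubated 60 min at room temperature, pH 7.5. Product measured by RapidFire MS/MS; 0% and 100% inhibition were DMSO and no-enzyme wells.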
In the case of `O=C(Nc1ccc(COCC(F)(F)F)nc1)c1cccn(-c2ccc(F)cc2OCC(F)(F)F)c1=O` [Example 73, 1-[4-fluoro-2-(2,2,2-trifluoroethoxy)phenyl]-2-oxo-N-{6-[(2,2,2-trifluoroethoxy)methyl]pyridin-3-yl}-1,2-dihydropyridine-3-carboxamide], the inhibition at 10 µM is reported as 99%. For `O=C(Nc1ccc(COCC(F)(F)F)nc1)c1cccn(-c2ccccc2OCC(F)(F)F)c1=O` [Example 74, 2-oxo-N-{6-[(2,2,2-trifluoroethoxy)methyl]pyridin-3-yl}-1-[2-(2,2,2-trifluoroethoxy)phenyl]-1,2-dihydropyridine-3-carboxamide], the inhibition at 10 µM was 99%. `O=C(Nc1ccc(C(O)(C(F)F)C(F)F)cc1)c1cccn(-c2ccccc2OCC(F)(F)F)c1=O` [Example 77, 2-oxo-N-[4-(1,1,3,3-tetrafluoro-2-hydroxypropan-2-yl)phenyl]-1-[2-(2,2,2-trifluoroethoxy)phenyl]-1,2-dihydropyridine-3-carboxamide] gave an inhibition at 10 µM of 100%. In the case of `O=C(Nc1ccc(C(O)(C(F)F)C(F)F)cc1)c1cccn(-c2ccc(F)cc2OCC(F)(F)F)c1=O` [Example 78, 1-[4-fluoro-2-(2,2,2-trifluoroethoxy)phenyl]-2-oxo-N-[4-(1,1,3,3-tetrafluoro-2-hydroxypropan-2-yl)phenyl]-1,2-dihydropyridine-3-carboxamide], the inhibition at 10 µM is reported as 100%. `O=C(Nc1ccc(OCC(F)(F)F)nc1)c1cccn(-c2ccnnc2OCC(F)(F)F)c1=O` [Example 79, 2-oxo-1-[3-(2,2,2-trifluoroethoxy)pyridazin-4-yl]-N-[6-(2,2,2-trifluoroethoxy)pyridin-3-yl]-1,2-dihydropyridine-3-carboxamide] was tested, and the inhibition at 10 µM was 87%. In the case of `N#CCc1ccc(NC(=O)c2cccn(-c3ccc(F)cc3OCC(F)(F)F)c2=O)cn1` [Example 80, N-[6-(cyanomethyl)pyridin-3-yl]-1-[4-fluoro-2-(2,2,2-trifluoroethoxy)phenyl]-2-oxo-1,2-dihydropyridine-3-carboxamide], the inhibition at 10 µM is reported as 71%. In the case of `CC(C)(O)c1ccc(NC(=O)c2cccn(-c3ccccc3OCC(F)(F)F)c2=O)cc1F` [Example 82, N-[3-fluoro-4-(2-hydroxypropan-2-yl)phenyl]-2-oxo-1-[2-(2,2,2-trifluoroethoxy)phenyl]-1,2-dihydropyridine-3-carboxamide], the inhibition at 10 µM is reported as 99%. Work on `CC(C)(O)c1ccc(NC(=O)c2cccn(-c3ccc(F)cc3OCC(F)(F)F)c2=O)cc1F` [Example 83, N-[3-fluoro-4-(2-hydroxypropan-2-yl)phenyl]-1-[4-fluoro-2-(2,2,2-trifluoroethoxy)phenyl]-2-oxo-1,2-dihydropyridine-3-carboxamide] yielded an inhibition at 10 µM of 98%. `CC(C)(O)c1ccc(NC(=O)c2cccn(-c3ccccc3OCC(F)(F)F)c2=O)cn1` [Example 84, N-[6-(2-hydroxypropan-2-yl)pyridin-3-yl]-2-oxo-1-[2-(2,2,2-trifluoroethoxy)phenyl]-1,2-dihydropyridine-3-carboxamide] gave an inhibition at 10 µM of 98%. For `CC(C)(O)c1ccc(NC(=O)c2cccn(-c3ccc(F)cc3OCC(F)(F)F)c2=O)cn1` [Example 85, 1-[4-fluoro-2-(2,2,2-trifluoroethoxy)phenyl]-N-[6-(2-hydroxypropan-2-yl)pyridin-3-yl]-2-oxo-1,2-dihydropyridine-3-carboxamide], the inhibition at 10 µM was 94%. `N#CCc1ccc(NC(=O)c2cccn(-c3ccccc3OCC(F)(F)F)c2=O)cn1` [Example 86, N-[6-(cyanomethyl)pyridin-3-yl]-2-oxo-1-[2-(2,2,2-trifluoroethoxy)phenyl]-1,2-dihydropyridine-3-carboxamide] showed an inhibition at 10 µM of 88%. Compound `CC(C)(C#N)c1ccc(NC(=O)c2cccn(-c3ccc(F)cc3OCC(F)(F)F)c2=O)cn1` [Example 87, N-[6-(2-cyanopropan-2-yl)pyridin-3-yl]-1-[4-fluoro-2-(2,2,2-trifluoroethoxy)phenyl]-2-oxo-1,2-dihydropyridine-3-carboxamide] has an inhibition at 10 µM of 99%. Work on `CC(C)(C#N)c1ccc(NC(=O)c2cccn(-c3ccccc3OCC(F)(F)F)c2=O)cn1` [Example 88, N-[6-(2-cyanopropan-2-yl)pyridin-3-yl]-2-oxo-1-[2-(2,2,2-trifluoroethoxy)phenyl]-1,2-dihydropyridine-3-carboxamide] yielded an inhibition at 10 µM of 100%. Work on `O=C(Nc1ccc(C(O)(C(F)(F)F)C(F)(F)F)cc1)c1cccn(-c2ccccc2OCC(F)(F)F)c1=O` [Example 89, N-[4-(1,1,1,3,3,3-hexafluoro-2-hydroxypropan-2-yl)phenyl]-2-oxo-1-[2-(2,2,2-trifluoroethoxy)phenyl]-1,2-dihydropyridine-3-carboxamide] yielded an inhibition at 10 µM of 100%. `CC(C)(O)c1ccc(NC(=O)c2cccn(-c3ccnnc3OCC(F)(F)F)c2=O)cc1` [Example 90, N-[4-(2-hydroxypropan-2-yl)phenyl]-2-oxo-1-[3-(2,2,2-trifluoroethoxy)pyridazin-4-yl]-1,2-dihydropyridine-3-carboxamide] was tested, and the inhibition at 10 µM was 90%. Work on `COC(C)(C)c1ccc(NC(=O)c2cccn(-c3ccc(F)cc3OCC(F)(F)F)c2=O)cn1` [Example 91, 1-[4-fluoro-2-(2,2,2-trifluoroethoxy)phenyl]-N-[6-(2-methoxypropan-2-yl)pyridin-3-yl]-2-oxo-1,2-dihydropyridine-3-carboxamide] yielded an inhibition at 10 µM of 89%. With `COC(C)(C)c1ccc(NC(=O)c2cccn(-c3ccccc3OCC(F)(F)F)c2=O)cn1` [Example 92, N-[6-(2-methoxypropan-2-yl)pyridin-3-yl]-2-oxo-1-[2-(2,2,2-trifluoroethoxy)phenyl]-1,2-dihydropyridine-3-carboxamide] the inhibition at 10 µM was 95%. Compound `O=C(Nc1ccc(OCC(F)(F)F)nc1)c1cncn(-c2ccc(F)cc2OCC(F)(F)F)c1=O` [Example 93, 1-[4-fluoro-2-(2,2,2-trifluoroethoxy)phenyl]-6-oxo-N-[6-(2,2,2-trifluoroethoxy)pyridin-3-yl]-1,6-dihydropyrimidine-5-carboxamide] has an inhibition at 10 µM of 99%. `CC(C)(O)c1ccc(NC(=O)c2ccnn(-c3ccc(F)cc3OCC(F)(F)F)c2=O)cc1` [Example 95, 2-[4-fluoro-2-(2,2,2-trifluoroethoxy)phenyl]-N-[4-(2-hydroxypropan-2-yl)phenyl]-3-oxo-2,3-dihydropyridazine-4-carboxamide] gave an inhibition at 10 µM of 99%. For `O=C(Nc1ccc(C2(O)CCC2)cc1)c1cccn(-c2ccccc2OCC(F)(F)F)c1=O` [Example 96, N-[4-(1-hydroxycyclobutyl)phenyl]-2-oxo-1-[2-(2,2,2-trifluoroethoxy)phenyl]-1,2-dihydropyridine-3-carboxamide], the inhibition at 10 µM was 100%. Compound `O=C(Nc1ccc(C2(O)CCC2)cc1)c1cccn(-c2ccc(F)cc2OCC(F)(F)F)c1=O` [Example 97, 1-[4-fluoro-2-(2,2,2-trifluoroethoxy)phenyl]-N-[4-(1-hydroxycyclobutyl)phenyl]-2-oxo-1,2-dihydropyridine-3-carboxamide] has an inhibition at 10 µM of 99%. For `CC(C)(O)c1ccc(NC(=O)c2cncn(-c3ccc(F)cc3OCC(F)(F)F)c2=O)cc1` [Example 98, 1-[4-fluoro-2-(2,2,2-trifluoroethoxy)phenyl]-N-[4-(2-hydroxypropan-2-yl)phenyl]-6-oxo-1,6-dihydropyrimidine-5-carboxamide], the inhibition at 10 µM was 98%. With `CC(F)(F)COc1ccccc1-n1cccc(C(=O)Nc2ccc(C(C)(C)O)cc2)c1=O` [Example 99, 1-[2-(2,2-difluoropropoxy)phenyl]-N-[4-(2-hydroxypropan-2-yl)phenyl]-2-oxo-1,2-dihydropyridine-3-carboxamide] the inhibition at 10 µM was 99%. Work on `Cc1ccc(C(=O)Nc2ccc(C(C)(C)O)cc2)c(=O)n1-c1ccc(F)cc1OCC(F)(F)F` [Example 100, 1-[4-fluoro-2-(2,2,2-trifluoroethoxy)phenyl]-N-[4-(2-hydroxypropan-2-yl)phenyl]-6-methyl-2-oxo-1,2-dihydropyridine-3-carboxamide] yielded an inhibition at 10 µM of 70%. `O=C(Nc1ccc(OCC(F)(F)F)nc1)c1cccn(-c2ccc(F)cc2OCC(F)F)c1=O` [Example 101, 1-[2-(2,2-difluoroethoxy)-4-fluorophenyl]-2-oxo-N-[6-(2,2,2-trifluoroethoxy)pyridin-3-yl]-1,2-dihydropyridine-3-carboxamide] gave an inhibition at 10 µM of 99%. Work on `CC(C)(O)c1ccc(NC(=O)c2cccn(-c3ccc(F)cc3OCC(F)F)c2=O)cc1` [Example 102, 1-[2-(2,2-difluoroethoxy)-4-fluorophenyl]-N-[4-(2-hydroxypropan-2-yl)phenyl]-2-oxo-1,2-dihydropyridine-3-carboxamide] yielded an inhibition at 10 µM of 98%. Compound `O=C(Nc1ccc(C(O)(C(F)(F)F)C(F)(F)F)cc1)c1cccn(-c2ccc(F)cc2OCC(F)(F)F)c1=O` [Example 103, 1-[4-fluoro-2-(2,2,2-trifluoroethoxy)phenyl]-N-[4-(1,1,1,3,3,3-hexafluoro-2-hydroxypropan-2-yl)phenyl]-2-oxo-1,2-dihydropyridine-3-carboxamide] has an inhibition at 10 µM of 100%. `N#Cc1cc(F)ccc1-n1cccc(C(=O)Nc2ccc(C(O)(C(F)(F)F)C(F)(F)F)cc2)c1=O` [Example 104, 1-(2-cyano-4-fluorophenyl)-N-[4-(1,1,1,3,3,3-hexafluoro-2-hydroxypropan-2-yl)phenyl]-2-oxo-1,2-dihydropyridine-3-carboxamide] was tested, and the inhibition at 10 µM was 95%.
